ChEMBL document CHEMBL1143172, “Profiling Protein Arginine Deiminase 4 (PAD4): a novel screen to identify PAD4 inhibitors” (Bioorg Med Chem, 2008)

Tests used:
[1] = target: T1, Protein-arginine deiminase type-4 (Homo sapiens, UniProt Q9UM07); test: Inhibition of PAD4 measured by intercept plot of Lineweaver-Burke analyses
[2] = target: T1, Protein-arginine deiminase type-4; test: Inhibition of PAD4 by ABPP-based assay
[3] = target: T1, Protein-arginine deiminase type-4; test: Inhibition of PAD4 measured by slope plot of Lineweaver-Burke analyses

T1 sequence (Q9UM07 whole entry): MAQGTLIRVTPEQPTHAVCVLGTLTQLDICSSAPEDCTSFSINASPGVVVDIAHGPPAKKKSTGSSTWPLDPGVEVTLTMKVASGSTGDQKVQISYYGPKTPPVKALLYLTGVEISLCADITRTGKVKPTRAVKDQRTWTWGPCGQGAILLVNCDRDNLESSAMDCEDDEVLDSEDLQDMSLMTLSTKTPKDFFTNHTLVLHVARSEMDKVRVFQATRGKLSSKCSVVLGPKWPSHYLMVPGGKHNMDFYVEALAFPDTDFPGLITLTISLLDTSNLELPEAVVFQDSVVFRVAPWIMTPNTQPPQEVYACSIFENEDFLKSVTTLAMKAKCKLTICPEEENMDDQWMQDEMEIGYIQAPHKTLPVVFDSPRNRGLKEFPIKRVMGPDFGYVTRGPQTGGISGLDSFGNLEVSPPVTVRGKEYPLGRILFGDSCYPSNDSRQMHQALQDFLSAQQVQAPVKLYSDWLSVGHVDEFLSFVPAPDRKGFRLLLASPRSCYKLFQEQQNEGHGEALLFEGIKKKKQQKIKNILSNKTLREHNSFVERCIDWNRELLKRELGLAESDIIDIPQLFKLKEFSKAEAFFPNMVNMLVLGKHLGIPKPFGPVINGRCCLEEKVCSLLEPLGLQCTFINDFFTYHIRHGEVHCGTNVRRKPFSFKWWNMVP

CN(C)c1ccc(O)c2c1C[C@H]1CC3[C@H](N(C)C)C(O)=C(C(N)=O)C(=O)C3(O)C(O)=C1C2=O (single isomer, unassigned) [MINOCYCLINE]
Ki [1]: 630 µM
IC50 [2]: 0.62 mM
Ki [3]: 180 µM

Cn1cnc([N+](=O)[O-])c1Sc1ncnc2nc[nH]c12 [AZATHIOPRINE]
IC50 [2]: 8.1 mM

CC[C@H]1OC(=O)[C@H](C)[C@@H](O[C@H]2C[C@@](C)(OC)[C@@H](O)[C@H](C)O2)[C@H](C)[C@@H](O[C@@H]2O[C@H](C)C[C@H](N(C)C)[C@H]2O)[C@](C)(O)C[C@@H](C)CN(C)[C@H](C)[C@@H](O)[C@]1(C)O [AZITHROMYCIN]
IC50 [2]: > 10 mM

Cc1oncc1C(=O)Nc1ccc(C(F)(F)F)cc1 [LEFLUNOMIDE]
IC50 [2]: 2.4 mM

CN(Cc1cnc2nc(N)nc(N)c2n1)c1ccc(C(=O)N[C@@H](CCC(=O)O)C(=O)O)cc1 [METHOTREXATE]
IC50 [2]: > 10 mM

Cc1cc(NS(=O)(=O)c2ccc(N)cc2)no1 [SULFAMETHOXAZOLE]
IC50 [2]: > 10 mM

CN(C)[C@@H]1C(O)=C(C(N)=O)C(=O)[C@@]2(O)C(O)=C3C(=O)c4c(O)cccc4[C@@](C)(O)[C@H]3C[C@@H]12 [TETRACYCLINE]
IC50 [2]: 0.78 mM
